Measurements published in patent US20110091531A1, “Cooling Composition” (GIV AUDAN SA, priority 2008, published 2011).

Experiment: Solubility of Evercool 180 alone in solvent under regular conditions
Type: physicochemical

Soluble in menthol (at 65° C. under regular conditions): 17% | Soluble in peppermint oil (at room temperature under regular conditions): 12% | Solubility in Orange oil (1× Brazilian) (under regular conditions): > 1%
SMILES: CC(C)[C@@H]1CC[C@@H](C)C[C@H]1C(=O)Nc1ccc(CC#N)cc1 [Evercool™ 180, (1R,2S,5R)—N-(4-(cyanomethyl)phenyl)-2-isopropyl-5-methylcyclohexane-carboxamide]
